Results published in patent US20160039904A1, “STABILIZED SINGLE HUMAN CD4 DOMAINS AND FUSION PROTEINS” (priority 2013, published 2016).

Assays:
HIV-1 KNH1144.EC1 = experiment: TZM-bl cell-based neutralization assay; conditions: Table 6; KNH1144.EC1, clade A, R5
HIV-1 Z2Z6 = experiment: Pseudotyped HIV-1 neutralization (HOS-CD4-CCR5 cells); format: cell-based; conditions: Table 3; Z2Z6, clade D, R5
Procedure: (§1) To determine the potency and breadth of HIV-1 neutralization by the D1 mutants, viruses pseudotyped with Envs from HIV-1 isolates representing clades A-E and using either CCR5 (R5) or CXCR4 (X4) or both (R5X4) as a coreceptor were included. Pseudoviruses were derived from 293T cells and a neutralization assay was performed in duplicate using HOS-CD4-CCR5 (for all R5 and dual tropic viruses) or HOS-CD4-CXCR4 cell lines as described in Chen et al., Proc. Natl. Acad. Sci. USA, 105: 17121-17126 (2008)). Luminescence was measured 48 hours post-infection and the percentage neutralization was calculated by the following formula: (1—average RLU of inhibitor-containing wells/average RLU or virus-only wells)×100.

HIV-1 JRFL = experiment: as above; format: cell-based; conditions: R5
Procedure: as §1

HIV-1 92UG037.8 = experiment: as above; format: cell-based; conditions: Table 3; 92UG037.8, clade A, R5
Procedure: as §1

HIV-1 89.6 = experiment: as above; format: cell-based; conditions: Table 3; 89.6, clade B, R5X4
Procedure: as §1

HIV-1 AD8 = experiment: as above; format: cell-based; conditions: Table 3; AD8, clade B, R5
Procedure: as §1

HIV-1 GXE = experiment: as above; format: cell-based; conditions: Table 3, clade E, R5
Procedure: as §1

HIV-1 GXC = experiment: as above; format: cell-based; conditions: Table 3, clade C, R5
Procedure: as §1

HIV-1 Bal = experiment: as above; format: cell-based; conditions: R5
Procedure: as §1

HIV-1 R2 = experiment: as above; format: cell-based; conditions: Table 3; R2, clade B, R5
Procedure: as §1

HIV-1 JRCSF = experiment: as above; format: cell-based; conditions: Table 3, clade B, R5
Procedure: as §1

HIV-1 Env JRFL = experiment: HIV-1 Env-mediated cell-cell fusion; format: cell-based; conditions: Table 5, clade B, R5
[1] = system: HIV-1 pseudotyped with Envs from different clades; experiment: Pseudotyped HIV-1 neutralization, means over the panel of Table 3; format: cell-based; conditions: all viruses, <[…] assigned 0.01, 2G12: 10 isolates significantly neutralized
Procedure: as §1

HIV-1 BZ167.ec9 = experiment: TZM-bl cell-based neutralization assay; conditions: Table 6; BZ167.ec9, clade B, X4
HIV-1 CM240.EC1 = experiment: TZM-bl cell-based neutralization assay; conditions: Table 6; CM240.EC1, clade AE, R5
HIV-1 Env Bal = experiment: HIV-1 Env-mediated cell-cell fusion; format: cell-based; conditions: R5

4Dm2m: bispecific multivalent fusion protein of mD1.22 and m36.4; two SEQ ID NO: 20 and two SEQ ID NO: 21 chains
IC50 (HIV-1 KNH1144.EC1): 81 pM | IC90 (HIV-1 KNH1144.EC1): 1000 pM | IC50 (HIV-1 Z2Z6): 140 ± 40 pM | IC90 (HIV-1 Z2Z6): 1100 ± 100 pM | IC50 (HIV-1 JRFL; Table 2, clade B): 60 pM | IC90 (HIV-1 JRFL; Table 2, clade B): 290 pM | IC50 (HIV-1 JRFL; Table 3, clade B): 140 ± 10 pM | IC90 (HIV-1 JRFL; Table 3, clade B): 390 ± 40 pM | IC50 (HIV-1 92UG037.8): 51 ± 1 pM | IC90 (HIV-1 92UG037.8): 450 ± 10 pM | IC50 (HIV-1 89.6): < 21 pM | IC90 (HIV-1 89.6): < 21 pM | IC50 (HIV-1 AD8): 130 ± 10 pM | IC90 (HIV-1 AD8): 740 ± 60 pM | IC50 (HIV-1 GXE): 830 ± 110 pM | IC90 (HIV-1 GXE): 8200 ± 1300 pM | IC50 (HIV-1 GXC): 610 ± 360 pM | IC90 (HIV-1 GXC): 4000 pM | IC50 (HIV-1 Bal; Table 2, clade B): 120 pM | IC90 (HIV-1 Bal; Table 2, clade B): 360 pM | IC50 (HIV-1 Bal; Table 3, clade B): 150 ± 40 pM | IC90 (HIV-1 Bal; Table 3, clade B): 500 ± 70 pM | IC50 (HIV-1 R2): 28 ± 11 pM | IC90 (HIV-1 R2): 430 ± 180 pM | IC50 (HIV-1 JRCSF): 290 ± 180 pM | IC90 (HIV-1 JRCSF): 3000 ± 2900 pM | IC50 (HIV-1 Env JRFL): 3600 ± 200 pM | IC90 (HIV-1 Env JRFL): 8800 ± 400 pM | IC50, arithmetic mean [1]: 220 pM | IC50, geometric mean [1]: 120 pM | IC90, arithmetic mean [1]: 1600 pM | IC90, geometric mean [1]: 560 pM | IC50 (HIV-1 BZ167.ec9): 77 pM | IC90 (HIV-1 BZ167.ec9): 500 pM | IC50 (HIV-1 CM240.EC1): 450 pM | IC90 (HIV-1 CM240.EC1): 3700 pM | IC50 (HIV-1 Env Bal; Table 4, clade B): 4100 pM | IC50 (HIV-1 Env Bal; Table 5, clade B): 4100 ± 100 pM
